Data on eight compounds can be found in patent publication US20260250312A1, “ANTIBACTERIAL COMPOUNDS ELIMINATING DORMANT BACTERIAL CELLS” (UNIVERSITÉ D'AIX-MARSEILLE, priority 2022, published 2026).

Converted amounts (≈) assume the structure as drawn. “And” between values parts separate entries of the source, which are not always exact repeats. Equal entries are not always repeated. Where two headings read alike, the source gives them in different places.

For assay [1], the system named is Staphylococcus aureus (ATCC25923). The assay is described as follows: Microdilution MIC assay (CLSI-based), S. aureus. The assay is classed as cell-based. The settings on record: 20 hours incubation at 35-37° C., MHB; for MIC: read-out: Minimum inhibitory concentration S. aureus ATCC25923. The procedure:
(§1) The antibacterial activity of compounds was measured using a standard microdilution assay based on the Clinical and Laboratory Standards Institute (CLSI) guidelines. This method was slightly modified. Indeed, assay volumes were increased to 200 μL to improve reproducibility. The chemical compounds to be tested were in the form of salts for biological testing.
(§2) Bacteria tested: Antibacterial activities of the compounds were tested on Staphylococcus aureus (ATCC25923), Enterococcus faecalis (ATCC29212), Escherichia coli ([…]) and Pseudomonas aeruginosa (ATCC27853).
(§3) Preparation of the Preculture: Mueller Hinton Agar plates were inoculated with frozen biological strain in order to obtain separate colonies and the plates were incubated during 24 h at 35-37° C. 3 colonies of similar aspect were picked out, resuspended in 5 mL of fresh Mueller Hinton broth 1× (MHB) and incubated with shaking (160 rpm) at 35-37° C. overnight.
(§4) 0.1 mL of bacteria in exponential phase were suspended in 9.9 mL of MHB (1:100 dilution). 0.1 mL of the 1:100 dilution were dispensed into the wells of microplates containing 0.1 ml of serial compounds dilutions to yield ca. 5×10^5 CFU/mL. In parallel, the stocks solutions of chemical compounds were first diluted in appropriate solvent to a final concentration of 5 mg/mL. 8 μL were dispended into the first wells of the microplates containing 0.1 ml of sterile broth and a 0.5 cascade dilution was performed in MHB from 0.2 mg/mL. One control was made for each strain tested. […] Tests were performed in triplicate.
(§5) Reading of the Results: After incubation, the filter was replaced with a transparent film, and an optical density reading was then taken in an iEMS plate spectrophotometer at 620 nm. Calculation of the minimum inhibitory concentration (MIC) was performed.

Assay [2] deals with Enterococcus faecalis (ATCC29212). Nature of the assay: Microdilution MIC assay (CLSI-based), E. faecalis. The assay is classed as cell-based. The settings on record: 20 hours incubation at 35-37° C., MHB; for MIC: read-out: Minimum inhibitory concentration E. faecalis ATCC29212. The method, then: as §1, §2, §3, §4, §5
Background: Broth dilution looks for growth in wells or tubes with falling amounts of substance.

Assay [3] concerns Escherichia coli (ATCC28922). Nature of the assay: Microdilution MIC assay (CLSI-based), E. coli. The assay is classed as cell-based. The settings on record: 20 hours incubation at 35-37° C., MHB; for MIC: read-out: Minimum inhibitory concentration E. coli ATCC28922. The method, then:
as §1, §2, §3, §4, §5

The subject of assay [4] is Pseudomonas aeruginosa (ATCC27853). Nature of the assay: Microdilution MIC assay (CLSI-based), P. aeruginosa. The assay is classed as cell-based. The settings on record: 20 hours incubation at 35-37° C., MHB; for MIC: read-out: Minimum inhibitory concentration P. aeruginosa ATCC27853. The method, then:
as §1, §2, §3, §4, §5

The next assay concerns CHO-K1 cells. Nature of the assay: WST1 cytotoxicity test. The settings on record: WST1, 24 hours at 37° C.; for IC50: read-out: IC50 CHO. The assay is classed as cell-based, Chinese hamster. An excerpt:
Cytotoxicity: The test WST1 was used to measure the cytotoxic activity of the compounds of the invention. The test WST1 is a colorimetric test allowing to measure the viability and the degree of cell proliferation. It is based on cleavage of the colorless tetrazolium salts WST-1 (4—[3-(4-iodophenyl)-2-(4-nitrophenyl)-2H-5-tetrazolio]-1,3-benzene disulfonate) with mitochondrial dehydrogenases to the yellow-colored formazan derivative, which may be quantified by spectrophotometry at 420-480 nm. The WST1 test was performed on Chinese hamster ovary (CHO) cells. The CHO-K1 cells (ATCC, USA) were kept in culture in McCoy's 5A medium supplemented with 10% fetal calf serum, 2 mM of L-glutamine and a mixture of penicillin-streptomycin (100 U/ml: 10 μg/mL). The culture was incubated at 37° C. under an atmosphere enriched in CO2 (5%), and subcultured every two days. The cells were transferred into 96-well plates (25,000 cells/mL) in whole McCoy's 5A medium, and maintained for 24 hours at 37° C. under a humid atmosphere enriched in CO2 (5%). Increasing concentrations of tested compounds were added to the wells, each compound was tested in replicates and 8 growth controls containing the cells in the medium alone were included in each series of tests. After 24 hours at 37° C. (5% CO2), the culture medium was removed, the cells were rinsed in phosphate buffer (PBS) and 50 μL of PBS containing 10% of reagent WST1 were added to each well. After 20 minutes of incubation at 37° C., the results were read by spectrophotometry at 450 nm. The results are expressed in dose-response relationships, modeled by nonlinear regression analysis using the TableCurve software.
Cytotoxicity: The same WST1 test as described in Example 2 above was used.
A general note: Tetrazolium dyes change colour on reduction, which living cells bring about.

The mark [5] stands for this setting: Staphylococcus aureus, ATCC25923, 20 h.
Where [6] appears, read: Enterococcus faecalis, ATCC29212, 20 h.
[7] abbreviates: Escherichia coli, ATCC28922, 20 h.
Setting [8] is: Pseudomonas aeruginosa, ATCC27853, 20 h.
Where [9] appears, read: Cricetulus griseus, CHO-K1, 24 h.

For orientation: IC50 means the point on the concentration scale where inhibition reaches its midpoint. As to `COC(=O)[C@@H](NC(=O)CC[C@@H](C)[C@H]1CC[C@H]2[C@@H]3[C@H](O)C[C@@H]4CC(NCCCNCCCCNCCCN)CC[C@]4(C)[C@H]3CC[C@]12C)C(C)C` (mixture of isomers) [Compound S001, methyl ((4R)-4-((3S,5S,7R,10S,13R,17R)-3-((3-((4-((3-aminopropyl)amino)butyl)amino)propyl)amino)-7-hydroxy-10,13-dimethylhexadecahydro-1H-cyclopenta[a]phenanthren-17-yl)pentanoyl)valinate], the MIC in assay [1] (setting [5]) was 3.12 µM and 2 µg/mL; in assay [2] (setting [6]) it was 25 µM and 16 µg/mL; in assay [3] (setting [7]) it was 12.5 µM and 8 µg/mL; in assay [4] (setting [8]) it was 12.5 µM and 8 µg/mL. Moreover, the IC50 in the assay on CHO-K1 cells (setting [9]) was 4.41 µM and 3.04 µg/mL.
Turning to `COC(=O)[C@@H](NC(=O)CC[C@@H](C)[C@H]1CC[C@H]2[C@@H]3[C@H](O)C[C@@H]4CC(NCCCN5CCN(CCCN)CC5)CC[C@]4(C)[C@H]3CC[C@]12C)C(C)C` (mixture of isomers) [Compound S002, methyl ((4R)-4-((3S,5S,7R,10S,13R,17R)-3-((3-(4-(3-aminopropyl)piperazin-1-yl)propyl)amino)-7-hydroxy-10,13-dimethylhexadecahydro-1H-cyclopenta[a]phenanthren-17-yl)pentanoyl)valinate], the MIC in assay [1] (setting [5]) is 25 µM and 16 µg/mL; in assay [2] (setting [6]) it was 50 µM and 32 µg/mL; in assay [3] (setting [7]), 100 µM and 64 µg/mL; in assay [4] (setting [8]), 100 µM and 64 µg/mL. Further, the IC50 with CHO-K1 cells (setting [9]) is 93.3 µM and 64.2 µg/mL.
`COC(=O)[C@H](Cc1ccccc1)NC(=O)CC[C@@H](C)[C@H]1CCC2C3C(CC[C@@]21C)[C@@]1(C)CC[C@H](NCCCN(C)CCCN)C[C@H]1C[C@H]3O` (stereo partly drawn) [Compound S031, methyl ((4R)-4-((3S,5S,7R,10S,13R,17R)-3-((3-((3-aminopropyl)(methyl)amino)propyl)amino)-7-hydroxy-10,13-dimethylhexadecahydro-1H-cyclopenta[a]phenanthren-17-yl)pentanoyl)-L-phenylalaninate]: the MIC in assay [1] (setting [5]) was 6.25 µM and 4 µg/mL; in assay [2] (setting [6]) it was 25 µM and 16 µg/mL; in assay [3] (setting [7]), 12.5 µM and 8 µg/mL; in assay [4] (setting [8]), 25 µM and 16 µg/mL. In addition, the IC50 in the assay on CHO-K1 cells (setting [9]) was 84.5 µM and 57.6 µg/mL.
On to `COC(=O)[C@H](NC(=O)CC[C@@H](C)[C@H]1CCC2C3C(CC[C@@]21C)[C@@]1(C)CC[C@H](NCCNCCN)C[C@H]1C[C@H]3O)C(C)C` (stereo partly drawn) [Compound S020, methyl ((4R)-4-((3S,5S,7R,10S,13R,17R)-3-((2-((2-aminoethyl)amino)ethyl)amino)-7-hydroxy-10,13-dimethylhexadecahydro-1H-cyclopenta[a]phenanthren-17-yl)pentanoyl)-D-valinate], for which the MIC was 100 µM and 64 µg/mL in assay [1] (setting [5]); > 200 µM and > 128 µg/mL in assay [2] (setting [6]); 100 µM and 64 µg/mL in assay [3] (setting [7]); > 200 µM and > 128 µg/mL in assay [4] (setting [8]). For the same compound, the IC50 with CHO-K1 cells (setting [9]) was 17.2 µM and 10.2 µg/mL.
Consider `COC(=O)[C@H](NC(=O)CC[C@@H](C)[C@H]1CCC2C3C(CC[C@@]21C)[C@@]1(C)CC[C@H](NCCCNCCCN)C[C@H]1C[C@H]3O)C(C)C` (stereo partly drawn) [Compound S007, methyl ((4R)-4-((3S,5S,7R,10S,13R,17R)-3-((3-((3-aminopropyl)amino)propyl)amino)-7-hydroxy-10,13-dimethylhexadecahydro-1H-cyclopenta[a]phenanthren-17-yl)pentanoyl)-D-valinate], for which, in assay [1], the “Minimum inhibitory concentration S. aureus ATCC25923” value came out at 8 µg/mL (≈ 12.9 µM) and the MIC turned out to be 12.5 µM (≈ 7.74 µg/mL). For the same compound, in assay [2], the “Minimum inhibitory concentration E. faecalis ATCC29212” value is 8 µg/mL (≈ 12.9 µM) and the MIC is 12.5 µM (≈ 7.74 µg/mL). Besides, in assay [3], the “Minimum inhibitory concentration E. coli ATCC28922” value amounted to 4 µg/mL (≈ 6.46 µM) and the MIC was determined as 6.25 µM (≈ 3.87 µg/mL). Further, in assay [4], the “Minimum inhibitory concentration P. aeruginosa ATCC27853” value is 16 µg/mL (≈ 25.9 µM) and the MIC is given as 25 µM (≈ 15.5 µg/mL). For the same compound, in the assay on CHO-K1 cells, the “IC50 CHO” value was determined as 70.20 µg/mL (≈ 113 µM) and the IC50 came out at 113 µM.
As to `COC(=O)[C@H](Cc1ccccc1)NC(=O)CC[C@@H](C)[C@H]1CCC2C3C(CC[C@@]21C)[C@@]1(C)CC[C@H](NCCNCCN)C[C@H]1C[C@H]3O` (stereo partly drawn) [Compound S024, methyl ((4R)-4-((3S,5S,7R,10S,13R,17R)-3-((2-((2-aminoethyl)amino)ethyl)amino)-7-hydroxy-10,13-dimethylhexadecahydro-1H-cyclopenta[a]phenanthren-17-yl)pentanoyl)-L-phenylalaninate], the MIC in assay [1] (setting [5]) was 25 µM and 16 µg/mL; in assay [2] (setting [6]) it was 25 µM and 16 µg/mL; in assay [3] (setting [7]) it was 25 µM and 16 µg/mL; in assay [4] (setting [8]), 100 µM and 64 µg/mL. Further, in the assay with CHO-K1 cells (setting [9]), the IC50 is 83.7 µM and 53.5 µg/mL.
For the compound `COC(=O)[C@H](NC(=O)CC[C@@H](C)[C@H]1CCC2C3C(CC[C@@]21C)[C@@]1(C)CC[C@H](NCCNCCNCCN)C[C@H]1C[C@H]3O)C(C)C` (stereo partly drawn) [Compound S012, methyl ((4R)-4-((3S,5S,7R,10S,13R,17R)-3-((2-((2-((2-aminoethyl)amino)ethyl)amino)ethyl)amino)-7-hydroxy-10,13-dimethylhexadecahydro-1H-cyclopenta[a]phenanthren-17-yl)pentanoyl)-D-valinate], the MIC is 50 µM and 32 µg/mL in assay [1] (setting [5]); 25 µM and 16 µg/mL in assay [2] (setting [6]); 100 µM and 64 µg/mL in assay [3] (setting [7]); 100 µM and 64 µg/mL in assay [4] (setting [8]). Also, in the assay on CHO-K1 cells (setting [9]), the half-inhibitory concentration (IC50) was 101 µM and 64.2 µg/mL.
Regarding `COC(=O)[C@H](Cc1ccccc1)NC(=O)CC[C@@H](C)[C@H]1CCC2C3C(CC[C@@]21C)[C@@]1(C)CC[C@H](NCCN)C[C@H]1C[C@H]3O` (stereo partly drawn) [Compound S015, methyl ((4R)-4-((3S,5S,7R,10S,13R,17R)-3-((2-aminoethyl)amino)-7-hydroxy-10,13-dimethylhexadecahydro-1H-cyclopenta[a]phenanthren-17-yl)pentanoyl)-L-phenylalaninate], the MIC in assay [1] (setting [5]) is 12.5 µM and 8 µg/mL; in assay [2] (setting [6]), 12.5 µM and 8 µg/mL; in assay [3] (setting [7]), 12.5 µM and 8 µg/mL; in assay [4] (setting [8]), 50 µM and 32 µg/mL. Moreover, the 50% inhibitory concentration (IC50) in the assay on CHO-K1 cells (setting [9]) was > 250 µM and > 149 µg/mL.
